Reference: patent US20240016811A1, “CANCER THERAPY USING A COMBINATION OF CDK7 INHIBITOR WITH AN ANTI-MICROTUBULE AGENT” (Aurigene Oncology Limited, priority 2020, published 2024)
“And” between values parts separate entries of the source, which are not always exact repeats. Equal values may be shown once.

Test system: DU 145 cells
Assay: Proliferation of DU 145 cells after 3-day treatment, measured using CTG reagent; single agents and combination, synergy analysed with CompuSyn
Type: cell-based
Conditions: for inhibition of proliferation in DU145 cells: single agents, conclusion in words
Experimental: The effect of 3-day compound treatment on cell proliferation was measured using CTG reagent.

In the case of `CC(C)[C@H](C(=O)Nc1cc(C2CC2)[nH]n1)c1cccc(-c2ccc(NC(=O)/C=C/CN3CCOCC3)nc2)c1` (single isomer, unassigned) [Compound-44A], the “% inhibition in proliferation” value (Compound-44A 0.00209 nM, Day-3, replicate columns) is reported as 0.7% and −2.6% and 2.1%, the “% inhibition in proliferation” value (Compound-44A 0.00627 nM, Day-3, replicate columns) is reported as −1.3% and 3.7% and −0.3% and the “% inhibition in proliferation” value (Compound-44A 0.01882 nM, Day-3, replicate columns) is reported as −4.7% and 2.1% and −5.1%. The “% inhibition in proliferation” value (Compound-44A 0.0565 nM, Day-3, replicate columns) was −1.2% and 8.1% and 1.7%, the “% inhibition in proliferation” value (Compound-44A 0.1694 nM, Day-3, replicate columns) was −3.1% and 4.7% and −5.4% and the “% inhibition in proliferation” value (Compound-44A 0.5081 nM, Day-3, replicate columns) was 8.2% and 0.7% and 3.1%. The “% inhibition in proliferation” value (Compound-44A 1.5242 nM, Day-3, replicate columns) was 1.6% and −1.5% and 5.6%, the “% inhibition in proliferation” value (Compound-44A 4.5725 nM, Day-3, replicate columns) was 5.9% and 3.4% and the “% inhibition in proliferation” value (Compound-44A 13.7174 nM, Day-3, replicate columns) was 13.0% and 12.9%. The “% inhibition in proliferation” value (Compound-44A 41.1523 nM, Day-3, replicate columns) was 30.9% and 25.2%, the “% inhibition in proliferation” value (Compound-44A 123.4568 nM, Day-3, replicate columns) was 56.2% and 55.9% and the “% inhibition in proliferation” value (Compound-44A 370.3704 nM, Day-3, replicate columns) was 77.9% and 80.7%. For the same compound, the “% inhibition in proliferation” value (Compound-44A 1111.1111 nM, Day-3, replicate columns) was 110.4% and 105.8%, the “% inhibition in proliferation” value (Compound-44A 3333.3333 nM, Day-3, replicate columns) was 111.8% and 110.8% and the “% inhibition in proliferation” value (Compound-44A 10000.00 nM, Day-3, replicate columns) was 106.1% and 106.3%. For the same compound, the inhibition at 0.0005 µM (Homo sapiens, DU-145, 72 h, Compound-44A 0.5 nM alone (docetaxel 0), checkerboard, 3 days) was 3.98%, the inhibition at 0.0045 µM (Homo sapiens, DU-145, 72 h, Compound-44A 4.5 nM alone (docetaxel 0), checkerboard, 3 days) was 4.81% and the inhibition at 0.0137 µM (Homo sapiens, DU-145, 72 h, Compound-44A 13.7 nM alone (docetaxel 0), checkerboard, 3 days) was 14.6%. For the same compound, the inhibition at 0.0411 µM (Homo sapiens, DU-145, 72 h, Compound-44A 41.1 nM alone (docetaxel 0), checkerboard, 3 days) was 29.1%, the inhibition at 0.1234 µM (Homo sapiens, DU-145, 72 h, Compound-44A 123.4 nM alone (docetaxel 0), checkerboard, 3 days) was 55.7% and the inhibition at 0.3703 µM (Homo sapiens, DU-145, 72 h, Compound-44A 370.3 nM alone (docetaxel 0), checkerboard, 3 days) was 77.6%. For the same compound, the inhibition at 0.0045725 µM (Homo sapiens, DU-145, Compound-44A 4.5725 nM, Day-3, replicate columns) was 5.1%, the inhibition at 0.0137174 µM (Homo sapiens, DU-145, Compound-44A 13.7174 nM, Day-3, replicate columns) was 18% and the inhibition at 0.0411523 µM (Homo sapiens, DU-145, Compound-44A 41.1523 nM, Day-3, replicate columns) was 31.2%. The inhibition at 0.123457 µM (Homo sapiens, DU-145, Compound-44A 123.4568 nM, Day-3, replicate columns) was 55%, the inhibition at 0.37037 µM (Homo sapiens, DU-145, Compound-44A 370.3704 nM, Day-3, replicate columns) was 74.1% and the inhibition at 1.11111 µM (Homo sapiens, DU-145, Compound-44A 1111.1111 nM, Day-3, replicate columns) was 109%. For the same compound, the inhibition at 3.33333 µM (Homo sapiens, DU-145, Compound-44A 3333.3333 nM, Day-3, replicate columns) was 112%, the inhibition at 10 µM (Homo sapiens, DU-145, Compound-44A 10000.00 nM, Day-3, replicate columns) was 107% and the “inhibition of proliferation in DU145 cells” value was “dose dependent inhibition of proliferation”.

For `CC(=O)O[C@@]12CO[C@@H]1C[C@H](O)[C@@]1(C)C(=O)[C@H](O)C3=C(C)[C@@H](OC(=O)[C@H](O)[C@@H](NC(=O)OC(C)(C)C)c4ccccc4)C[C@@](O)([C@@H](OC(=O)c4ccccc4)[C@H]21)C3(C)C` [Docetaxel, docetaxel], the “% inhibition in proliferation” value (Docetaxel 0.0002 nM, Day-3, replicate columns) was 1.6% and −0.5% and 3.2%, the “% inhibition in proliferation” value (Docetaxel 0.0007 nM, Day-3, replicate columns) was −3.9% and −5.1% and 2.9% and the “% inhibition in proliferation” value (Docetaxel 0.0021 nM, Day-3, replicate columns) was −2.5% and 1.2% and 3.4%. The “% inhibition in proliferation” value (Docetaxel 0.0188 nM, Day-3, replicate columns) was 0.8% and 0.9% and 10.0%, the “% inhibition in proliferation” value (Docetaxel 0.0565 nM, Day-3, replicate columns) was 8.8% and 16.0% and 24.0% and the “% inhibition in proliferation” value (Docetaxel 0.1694 nM, Day-3, replicate columns) was 8.3% and 2.2% and 4.1%. The “% inhibition in proliferation” value (Docetaxel 0.5081 nM, Day-3, replicate columns) was 15.5% and 18.3%, the “% inhibition in proliferation” value (Docetaxel 1.5242 nM, Day-3, replicate columns) was 57.5% and 59.4% and the “% inhibition in proliferation” value (Docetaxel 4.5725 nM, Day-3, replicate columns) was 98.6% and 99.2%. The “% inhibition in proliferation” value (Docetaxel 13.7174 nM, Day-3, replicate columns) was 117.2% and 114.3%, the “% inhibition in proliferation” value (Docetaxel 41.1523 nM, Day-3, replicate columns) was 123.1% and 120.5% and the “% inhibition in proliferation” value (Docetaxel 123.4568 nM, Day-3, replicate columns) was 126.0% and 122.3%. The “% inhibition in proliferation” value (Docetaxel 370.3704 nM, Day-3, replicate columns) was 125.0% and 123.2%, the “% inhibition in proliferation” value (Docetaxel 1111.1111 nM, Day-3, replicate columns) was 125.2% and 121.8% and the “% inhibition in proliferation” value (Docetaxel 3333.3333 nM, Day-3, replicate columns) was 124.1% and 121.7%. The “% inhibition in proliferation” value (Docetaxel 10000.00 nM, Day-3, replicate columns) was 118.3% and 117.0%, the inhibition at 200 fM (Homo sapiens, DU-145, 72 h, Docetaxel 0.0002 nM alone (Compound-44A 0), checkerboard, 3 days) was 1.42% and the inhibition at 700 fM (Homo sapiens, DU-145, 72 h, Docetaxel 0.0007 nM alone (Compound-44A 0), checkerboard, 3 days) was 0%. The inhibition at 2.1 pM (Homo sapiens, DU-145, 72 h, Docetaxel 0.0021 nM alone (Compound-44A 0), checkerboard, 3 days) was 0.69%, the inhibition at 18.8 pM (Homo sapiens, DU-145, 72 h, Docetaxel 0.0188 nM alone (Compound-44A 0), checkerboard, 3 days) was 3.89% and the inhibition at 56.5 pM (Homo sapiens, DU-145, 72 h, Docetaxel 0.0565 nM alone (Compound-44A 0), checkerboard, 3 days) was 16.3%. It also gave an inhibition at 0.0001694 µM (Homo sapiens, DU-145, 72 h, Docetaxel 0.1694 nM (Table 5: 0.17) alone (Compound-44A 0), checkerboard, 3 days) of 4.86%, an inhibition at 0.0005081 µM (Homo sapiens, DU-145, 72 h, Docetaxel 0.5081 nM (Table 5: 0.51) alone (Compound-44A 0), checkerboard, 3 days) of 15.9% and an inhibition at 0.00152 µM (Homo sapiens, DU-145, 72 h, Docetaxel 1.52 nM alone (Compound-44A 0), checkerboard, 3 days) of 55.6%. The inhibition at 0.00457 µM (Homo sapiens, DU-145, 72 h, Docetaxel 4.57 nM alone (Compound-44A 0), checkerboard, 3 days) was 97.5%, the inhibition at 0.01372 µM (Homo sapiens, DU-145, 72 h, Docetaxel 13.72 nM alone (Compound-44A 0), checkerboard, 3 days) was 116% and the inhibition at 0.04115 µM (Homo sapiens, DU-145, 72 h, Docetaxel 41.15 nM alone (Compound-44A 0), checkerboard, 3 days) was 122%. The inhibition at 0.12346 µM (Homo sapiens, DU-145, 72 h, Docetaxel 123.46 nM alone (Compound-44A 0), checkerboard, 3 days) was 125%, the inhibition at 0.37037 µM (Homo sapiens, DU-145, 72 h, Docetaxel 370.37 nM alone (Compound-44A 0), checkerboard, 3 days) was 125% and the inhibition at 1.11111 µM (Homo sapiens, DU-145, 72 h, Docetaxel 1111.11 nM alone (Compound-44A 0), checkerboard, 3 days) was 124%. For the same compound, the inhibition at 3.33333 µM (Homo sapiens, DU-145, 72 h, Docetaxel 3333.33 nM alone (Compound-44A 0), checkerboard, 3 days) was 123%, the inhibition at 10 µM (Homo sapiens, DU-145, 72 h, Docetaxel 10000.00 nM alone (Compound-44A 0), checkerboard, 3 days) was 118% and the inhibition at 6.3 pM (Homo sapiens, DU-145, 72 h, Docetaxel […] alone (Compound-44A 0), checkerboard, 3 days) was 0%. It also gave an inhibition at 0.0005081 µM (Homo sapiens, DU-145, Docetaxel 0.5081 nM, Day-3, replicate columns) of 14%, an inhibition at 0.0015242 µM (Homo sapiens, DU-145, Docetaxel 1.5242 nM, Day-3, replicate columns) of 49.8% and an inhibition at 0.0045725 µM (Homo sapiens, DU-145, Docetaxel 4.5725 nM, Day-3, replicate columns) of 94.6%. It also gave an inhibition at 0.0137174 µM (Homo sapiens, DU-145, Docetaxel 13.7174 nM, Day-3, replicate columns) of 115%, an inhibition at 0.0411523 µM (Homo sapiens, DU-145, Docetaxel 41.1523 nM, Day-3, replicate columns) of 123% and an inhibition at 0.123457 µM (Homo sapiens, DU-145, Docetaxel 123.4568 nM, Day-3, replicate columns) of 126%. For the same compound, the inhibition at 0.37037 µM (Homo sapiens, DU-145, Docetaxel 370.3704 nM, Day-3, replicate columns) was 126%, the inhibition at 1.11111 µM (Homo sapiens, DU-145, Docetaxel 1111.1111 nM, Day-3, replicate columns) was 125% and the inhibition at 3.33333 µM (Homo sapiens, DU-145, Docetaxel 3333.3333 nM, Day-3, replicate columns) was 124%. The inhibition at 10 µM (Homo sapiens, DU-145, Docetaxel 10000.00 nM, Day-3, replicate columns) was 119% and the “inhibition of proliferation in DU145 cells” value was “dose dependent inhibition of proliferation”.
